For one data set, the system named is Puccinia recondita var. tritici. Description: wheat leaf rust control on wheat seedlings. The following applies: 100 ppm, sprayed day before inoculation. The data set is classed as in vivo. In short, it runs like this: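 Compounds at 100 ppm (6% acetone, 250 ppm polyhydric alcohol ester surfactant in water) sprayed to run-off on wheat seedlings; inoculated next day with P. recondita spores. Kept 24 h at saturated humidity, 20°, then 7 days in growth room before rust pustule rating.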
With `C[Si](C)(Cn1ccnc1)c1ccc(-c2ccccc2)cc1` [(1,1'-Biphenyl-4-yl)dimethyl(1H-imidazol-1-ylmethyl)silane], the pest or weed control at 100 ppm amounted to 100%.
With `C[Si](C)(Cn1ccnc1)c1ccc(Cl)cc1Cl` [(2,4-Dichlorophenyl)dimethyl(1H-imidazol-1-ylmethyl)silane], the pest or weed control at 100 ppm was determined as 90%.
Consider `CCCC[Si](C)(Cn1ccnc1)c1ccc(Cl)cc1Cl` (stereo not drawn) [Butyl(2,4-dichlorophenyl)(1H-imidazol-1-ylmethyl)methylsilane], for which the pest or weed control at 100 ppm came out at 100%.

The next data set concerns Erysiphe cichoracearum. Briefly: cucumber powdery mildew control on cucumber seedlings. The data set is classed as in vivo. The following applies: Golovinomyces cichoracearum, 168 h, 7 days. In short, it runs like this: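 Compounds at 100 ppm in water with 6% acetone and 250 ppm TREM 014 surfactant, sprayed to run-off on cucumber seedlings. Inoculation with Erysiphe cichoracearum spores the following day; disease rated after 7 days in a growth room against untreated plants.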
Turning to `C[Si](C)(Cn1ccnc1)c1ccc(-c2ccccc2)cc1` [(1,1'-Biphenyl-4-yl)dimethyl(1H-imidazol-1-ylmethyl)silane], the pest or weed control at 100 ppm is 100%.
Consider `C[Si](C)(Cn1ccnc1)c1ccc(Cl)cc1Cl` [(2,4-Dichlorophenyl)dimethyl(1H-imidazol-1-ylmethyl)silane], for which the pest or weed control at 100 ppm came to 100%.
With `CCCC[Si](C)(Cn1ccnc1)c1ccc(Cl)cc1Cl` (stereo not drawn) [Butyl(2,4-dichlorophenyl)(1H-imidazol-1-ylmethyl)methylsilane], the pest or weed control at 100 ppm is 100%.

Another data set has as its system Erysiphe graminis. Briefly: barley powdery mildew control on barley seedlings. It counts as in vivo. The following applies: Blumeria graminis, 168 h; 100 ppm, 7 days. Here is the method:
Several compounds of the previous examples were again dissolved in acetone in an amount equal to 6% of the final volume and then suspended at a concentration of 100 ppm in purified water containing 250 ppm of the surfactant TREM 014 (polyhydric alcohol esters). This suspension was sprayed to the point of run-off on barley seedlings. The following day, the plants were inoculated with a spore suspension of the fungus Erysiphe graminis, causal agent of barley powdery mildew, and incubated in a growth room for 7 days. Disease ratings were then made. Treated plants had little or no powdery mildew in contrast to untreated plants which were covered with powdery mildew.
Turning to `C[Si](C)(Cn1ccnc1)c1ccc(Cl)cc1Cl` [(2,4-Dichlorophenyl)dimethyl(1H-imidazol-1-ylmethyl)silane], the pest or weed control at 100 ppm turned out to be 100%.

The next data set deals with Venturia inaequalis. Briefly: apple scab control on apple seedlings. The data set is classed as in vivo. The following applies: Venturia inaequalis; 100 ppm. The procedure, abridged: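 Apple seedlings sprayed to run-off with 100 ppm compound suspension (6% acetone, 250 ppm TREM 014 surfactant). Inoculated next day with Venturia inaequalis spores; 24 hours at 20° in saturated humidity, then 10-12 days in growth room. Scab lesions compared with untreated plants.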
In turn, `C[Si](C)(Cn1ccnc1)c1ccc(-c2ccccc2)cc1` [(1,1'-Biphenyl-4-yl)dimethyl(1H-imidazol-1-ylmethyl)silane] yielded a pest or weed control at 100 ppm of 80%.
Turning to `C[Si](C)(Cn1ccnc1)c1ccc(Cl)cc1Cl` [(2,4-Dichlorophenyl)dimethyl(1H-imidazol-1-ylmethyl)silane], the pest or weed control at 100 ppm came out at 100%.
`CCCC[Si](C)(Cn1ccnc1)c1ccc(Cl)cc1Cl` (stereo not drawn) [Butyl(2,4-dichlorophenyl)(1H-imidazol-1-ylmethyl)methylsilane] showed a pest or weed control at 100 ppm of 100%.

In a further data set the test system is Helminthosporium maydis. Briefly: southern corn leaf blight control on corn seedlings. The data set is classed as in vivo. The following applies: Bipolaris maydis, 168 h. In short, it runs like this: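 Corn seedlings were sprayed to run-off with 100 ppm compound (6% acetone, 250 ppm TREM 014), inoculated next day with H. maydis spores, then kept 24 h at 20° in saturated humidity and 7 more days in a growth room. Lesions were rated as disease score.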
With `C[Si](C)(Cn1ccnc1)c1ccc(-c2ccccc2)cc1` [(1,1'-Biphenyl-4-yl)dimethyl(1H-imidazol-1-ylmethyl)silane], the pest or weed control at 100 ppm was 90%.
In turn, `C[Si](C)(Cn1ccnc1)c1ccc(Cl)cc1Cl` [(2,4-Dichlorophenyl)dimethyl(1H-imidazol-1-ylmethyl)silane] registered a pest or weed control at 100 ppm of 70%.
The same measure, in the same setting: the result for `CCCC[Si](C)(Cn1ccnc1)c1ccc(Cl)cc1Cl` (stereo not drawn) [Butyl(2,4-dichlorophenyl)(1H-imidazol-1-ylmethyl)methylsilane] reads 80%.

A further data set relates to Cercospora arachidicola. Briefly: peanut early leafspot control on peanut seedlings. It counts as in vivo. The following applies: Mycosphaerella arachidis, 336 h. In short, it runs like this: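 Compounds dissolved in acetone (6% of final volume) and suspended at 100 ppm in water with 250 ppm TREM 014, sprayed to run-off on seedlings. Cercospora arachidicola inoculated next day; 24 h saturated humidity at 27°, then 14 days growth room before disease and leafspot rating.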
Compound `C[Si](C)(Cn1ccnc1)c1ccc(-c2ccccc2)cc1` [(1,1'-Biphenyl-4-yl)dimethyl(1H-imidazol-1-ylmethyl)silane] gave a pest or weed control at 100 ppm of 100%.
The compound `C[Si](C)(Cn1ccnc1)c1ccc(Cl)cc1Cl` [(2,4-Dichlorophenyl)dimethyl(1H-imidazol-1-ylmethyl)silane] yielded a pest or weed control at 100 ppm of 100%.
Turning to `CCCC[Si](C)(Cn1ccnc1)c1ccc(Cl)cc1Cl` (stereo not drawn) [Butyl(2,4-dichlorophenyl)(1H-imidazol-1-ylmethyl)methylsilane], the pest or weed control at 100 ppm was 100%.

A further data set deals with Uromyces phaseoli. Description: bean rust control on bean seedlings. The data set is classed as in vivo. The following applies: 20 ppm. Here is the method: Compounds of the previous examples were again dissolved in acetone in an amount equal to 6% of the final volume and then suspended at a concentration of 20 ppm in purified water containing 250 ppm of the surfactant TREM 014 (polyhydric alcohol esters). This suspension was sprayed to the point of run-off on bean seedlings. The following day, the plants were inoculated with a spore suspension of the fungus Uromyces phaseoli, causal agent of bean rust, and incubated in a saturated humidity chamber at 20° for 24 hours and then in a greenhouse for 7 days. Disease ratings were then made. Treated plants from successful treatments had few or no rust pustules in contrast to untreated plants which were covered with rust pustules.
For `C[Si](C)(Cn1ccnc1)c1ccc(-c2ccccc2)cc1` [(1,1'-Biphenyl-4-yl)dimethyl(1H-imidazol-1-ylmethyl)silane], the “% Control Bean Rust” value amounted to 100%.
On to `C[Si](C)(Cn1ccnc1)c1ccc(Cl)cc1Cl` [(2,4-Dichlorophenyl)dimethyl(1H-imidazol-1-ylmethyl)silane], for which the “% Control Bean Rust” value is recorded as 83%.

The next data set has as its system Monilinia fructicola. Briefly: stone fruit brown rot colony growth inhibition on canned peach halves. The data set is classed as cell-based. The following applies: 120 h, dipped 3 minutes, five days, percent growth inhibition of colonies, read-out: % Control Brown Rot. An excerpt:
Several compounds of the previous examples were again dissolved in acetone in an amount equal to 5% of the final volume and then suspended at a concentration of 100 ppm in purified water containing 700 ppm of the surfactant TREM 014 (polyhydric alcohol esters). Canned peach halves were dipped in this suspension for three minutes and then placed to air dry in sterile containers. Upon drying, the peach halves were inoculated with two pieces of Monilinia fructicola, causal agent of stone fruit brown rot, mycelium and then incubated in the sterile containers for five days. At that time the radii of the colonies' growth were measured on each peach. […] Percent disease contol (percent growth inhibition of colonies on treated peaches as compared to that of colonies on untreated peaches) is expressed in the table below.
For the compound `C[Si](C)(Cn1ccnc1)c1ccc(-c2ccccc2)cc1` [(1,1'-Biphenyl-4-yl)dimethyl(1H-imidazol-1-ylmethyl)silane], the inhibition of growth at 100 ppm came to 83%.
For `C[Si](C)(Cn1ccnc1)c1ccc(Cl)cc1Cl` [(2,4-Dichlorophenyl)dimethyl(1H-imidazol-1-ylmethyl)silane], the inhibition of growth at 100 ppm stood at 100%.

The subject of a further data set is Rhizoctonia solani. Briefly: rice sheath blight control on rice seedlings. The data set is classed as in vivo. The following applies: Rhizoctonia solani, 168 h, 7 days. The procedure, abridged: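 Rice seedlings sprayed to run-off with 100 ppm compound suspension (6% acetone, 250 ppm surfactant), then inoculated next day with bran/mycelium of Rhizoctonia solani. After 7 days in a growth room, sheath blight disease was rated.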
The compound `C[Si](C)(Cn1ccnc1)c1ccc(-c2ccccc2)cc1` [(1,1'-Biphenyl-4-yl)dimethyl(1H-imidazol-1-ylmethyl)silane] showed a pest or weed control at 100 ppm of 0%.
Compound `C[Si](C)(Cn1ccnc1)c1ccc(Cl)cc1Cl` [(2,4-Dichlorophenyl)dimethyl(1H-imidazol-1-ylmethyl)silane] displayed a pest or weed control at 100 ppm of 0%.
As for `CCCC[Si](C)(Cn1ccnc1)c1ccc(Cl)cc1Cl` (stereo not drawn) [Butyl(2,4-dichlorophenyl)(1H-imidazol-1-ylmethyl)methylsilane], the pest or weed control at 100 ppm was 90%.

Another data set relates to Pyricularia oryzae. Briefly: whole plant or invertebrate. It counts as in vivo. The following applies: 168 h, read-out: % Control of Rice Blast.
On to `C[Si](C)(Cn1ccnc1)c1ccc(-c2ccccc2)cc1` [(1,1'-Biphenyl-4-yl)dimethyl(1H-imidazol-1-ylmethyl)silane], for which the pest or weed control at 100 ppm turned out to be 0%.
On the same count and under the same terms, the value for `C[Si](C)(Cn1ccnc1)c1ccc(Cl)cc1Cl` [(2,4-Dichlorophenyl)dimethyl(1H-imidazol-1-ylmethyl)silane] was 0%; that for `CCCC[Si](C)(Cn1ccnc1)c1ccc(Cl)cc1Cl` (stereo not drawn) [Butyl(2,4-dichlorophenyl)(1H-imidazol-1-ylmethyl)methylsilane] was 0%.

In the next data set the test system is Phytophthora infestans. Briefly: whole plant or invertebrate. The data set is classed as in vivo. The following applies: Phytophthora infestans, in Solanum lycopersicum, 168 h, read-out: % Control of Tomato Late Blight.
Regarding `C[Si](C)(Cn1ccnc1)c1ccc(-c2ccccc2)cc1` [(1,1'-Biphenyl-4-yl)dimethyl(1H-imidazol-1-ylmethyl)silane], the pest or weed control at 100 ppm came out at 50%.
On the same count and under the same terms, the value for `C[Si](C)(Cn1ccnc1)c1ccc(Cl)cc1Cl` [(2,4-Dichlorophenyl)dimethyl(1H-imidazol-1-ylmethyl)silane] was 0%.
Regarding `CCCC[Si](C)(Cn1ccnc1)c1ccc(Cl)cc1Cl` (stereo not drawn) [Butyl(2,4-dichlorophenyl)(1H-imidazol-1-ylmethyl)methylsilane], the pest or weed control at 100 ppm was found to be 0%.

Another data set deals with 5 Phytophthora species.
Assay: not given
It counts as cell-based. The following applies: 200.0 ppm in agar, 22° C., 6 days; controlled = radial growth 1 mm or less.
As to `C[Si](C)(Cn1ccnc1)c1ccc(-c2ccccc2)cc1` [(1,1'-Biphenyl-4-yl)dimethyl(1H-imidazol-1-ylmethyl)silane], the “No. of 5 Phytophthora species controlled in vitro” value is given as 3.
As to `C[Si](C)(Cn1ccnc1)c1ccc(Cl)cc1Cl` [(2,4-Dichlorophenyl)dimethyl(1H-imidazol-1-ylmethyl)silane], the “No. of 5 Phytophthora species controlled in vitro” value is on record as 5.

A further data set has as its system Pythium aphanadermatum. Description: Pythium control on coated cotton seeds. The data set is classed as in vivo. The following applies: 168 h, 2 gm/kg seed, 1 week. In short, it runs like this: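 Cotton seeds coated with formulated compound at 2 gm/kg seed, air dried, and planted in soil amended with Pythium aphanadermatum, sand and corn meal. Held 1 week at room temperature before disease rating.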
Take `C[Si](C)(Cn1ccnc1)c1ccc(-c2ccccc2)cc1` [(1,1'-Biphenyl-4-yl)dimethyl(1H-imidazol-1-ylmethyl)silane]: the pest or weed control at 2000 mg/kg turned out to be 18%.

The subject of another data set is Pythium aphanadermatum. Description: Pythium control on coated corn seeds. The data set is classed as in vivo. The following applies: 504 h, 2 gm/kg seed, 49° F. 2 weeks then 70° F. 1 week. In short, it runs like this:
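Formulated compounds were coated onto corn seeds at 2 gm/kg seed, air-dried and sown in soil infested with Pythium aphanadermatum at a rate lethal to most untreated seeds. Seeds were held 2 weeks at 49° F, then 1 week at 70° F, before disease rating.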
Consider `C[Si](C)(Cn1ccnc1)c1ccc(-c2ccccc2)cc1` [(1,1'-Biphenyl-4-yl)dimethyl(1H-imidazol-1-ylmethyl)silane], for which the pest or weed control at 2000 mg/kg was 32%.

The test system of another data set is cucumber seedlings. Briefly: phytotoxicity on cucumber seedlings. The data set is classed as in vivo. Also on record: key: G: growth reduction; H: hormonal effects. The following applies: 100 ppm.
With `C[Si](C)(Cn1ccnc1)c1ccc(Cl)cc1Cl` [(2,4-Dichlorophenyl)dimethyl(1H-imidazol-1-ylmethyl)silane], the “Phytotoxicity (growth reduction or hormonal effects)” value is on record as “H”.
With `CCCC[Si](C)(Cn1ccnc1)c1ccc(Cl)cc1Cl` (stereo not drawn) [Butyl(2,4-dichlorophenyl)(1H-imidazol-1-ylmethyl)methylsilane], the “Phytotoxicity (growth reduction or hormonal effects)” value is reported as “G”.

The test system of a further data set is apple seedlings. Description: phytotoxicity on apple seedlings. The following applies: 100 ppm. On the set-up: key: B: Phytotoxic burn. The data set is classed as in vivo. Here is the method:
Compounds of this invention were dissolved in acetone in an amount equal to 6% of the final volume and then suspended at a concentration of 100 ppm in purified water containing 250 ppm of the surfactant TREM 014 (polyhydric alcohol esters). This suspension was sprayed to the point of run-off on apple seedlings. The following day, the plants were inoculated with a spore suspension of the fungus Venturia inaequalis, causal agent of apple scab, and incubated in a saturated humidity chamber at 20° for 24 hours and then in a growth room for an additional 10-12 days. Treated plants from successful treatments had few or no apple scab lesions when compared to untreated plants which were covered with scab lesions.
With `CCCC[Si](C)(Cn1ccnc1)c1ccc(Cl)cc1Cl` (stereo not drawn) [Butyl(2,4-dichlorophenyl)(1H-imidazol-1-ylmethyl)methylsilane], the Phytotoxic burn entry is reported as “B”.
